ChEMBL document CHEMBL1133403 (Bioorg Med Chem Lett, 2000)

Tests used:
[1] = target: T1, Glucocorticoid receptor (Homo sapiens) (UniProt P04150); test: Percent inhibition of glucocorticoid receptor transcriptional activity at Dexamethasone EC50; type: functional
T1 sequence (whole entry): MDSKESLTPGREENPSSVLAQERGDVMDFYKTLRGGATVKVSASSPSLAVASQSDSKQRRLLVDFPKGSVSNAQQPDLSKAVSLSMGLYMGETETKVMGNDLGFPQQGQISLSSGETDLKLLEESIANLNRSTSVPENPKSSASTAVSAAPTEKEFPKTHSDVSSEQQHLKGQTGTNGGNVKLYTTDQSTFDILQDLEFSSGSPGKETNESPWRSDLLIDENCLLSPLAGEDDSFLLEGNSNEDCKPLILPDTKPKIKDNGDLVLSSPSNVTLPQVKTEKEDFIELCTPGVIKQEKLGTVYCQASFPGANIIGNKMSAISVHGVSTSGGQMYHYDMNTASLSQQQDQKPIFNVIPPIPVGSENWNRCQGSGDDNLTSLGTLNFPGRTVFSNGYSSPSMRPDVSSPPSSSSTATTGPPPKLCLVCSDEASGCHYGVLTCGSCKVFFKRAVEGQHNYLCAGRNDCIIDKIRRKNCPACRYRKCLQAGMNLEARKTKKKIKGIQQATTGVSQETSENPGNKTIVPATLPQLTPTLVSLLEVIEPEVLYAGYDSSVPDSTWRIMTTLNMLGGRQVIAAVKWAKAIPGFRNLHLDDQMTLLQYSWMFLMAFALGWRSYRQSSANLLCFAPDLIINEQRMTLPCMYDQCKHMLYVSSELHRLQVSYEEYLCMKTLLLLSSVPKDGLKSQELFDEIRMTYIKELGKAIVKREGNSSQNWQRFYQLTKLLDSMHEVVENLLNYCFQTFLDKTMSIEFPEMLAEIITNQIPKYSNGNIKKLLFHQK

Progesterone receptor [2] = target: T2, Progesterone receptor (Homo sapiens, UniProt P06401); test: Human progesterone receptor (hPR) agonist activity expressed in CV-1 cells; type: functional, cell-based
T2 sequence (P06401 whole entry): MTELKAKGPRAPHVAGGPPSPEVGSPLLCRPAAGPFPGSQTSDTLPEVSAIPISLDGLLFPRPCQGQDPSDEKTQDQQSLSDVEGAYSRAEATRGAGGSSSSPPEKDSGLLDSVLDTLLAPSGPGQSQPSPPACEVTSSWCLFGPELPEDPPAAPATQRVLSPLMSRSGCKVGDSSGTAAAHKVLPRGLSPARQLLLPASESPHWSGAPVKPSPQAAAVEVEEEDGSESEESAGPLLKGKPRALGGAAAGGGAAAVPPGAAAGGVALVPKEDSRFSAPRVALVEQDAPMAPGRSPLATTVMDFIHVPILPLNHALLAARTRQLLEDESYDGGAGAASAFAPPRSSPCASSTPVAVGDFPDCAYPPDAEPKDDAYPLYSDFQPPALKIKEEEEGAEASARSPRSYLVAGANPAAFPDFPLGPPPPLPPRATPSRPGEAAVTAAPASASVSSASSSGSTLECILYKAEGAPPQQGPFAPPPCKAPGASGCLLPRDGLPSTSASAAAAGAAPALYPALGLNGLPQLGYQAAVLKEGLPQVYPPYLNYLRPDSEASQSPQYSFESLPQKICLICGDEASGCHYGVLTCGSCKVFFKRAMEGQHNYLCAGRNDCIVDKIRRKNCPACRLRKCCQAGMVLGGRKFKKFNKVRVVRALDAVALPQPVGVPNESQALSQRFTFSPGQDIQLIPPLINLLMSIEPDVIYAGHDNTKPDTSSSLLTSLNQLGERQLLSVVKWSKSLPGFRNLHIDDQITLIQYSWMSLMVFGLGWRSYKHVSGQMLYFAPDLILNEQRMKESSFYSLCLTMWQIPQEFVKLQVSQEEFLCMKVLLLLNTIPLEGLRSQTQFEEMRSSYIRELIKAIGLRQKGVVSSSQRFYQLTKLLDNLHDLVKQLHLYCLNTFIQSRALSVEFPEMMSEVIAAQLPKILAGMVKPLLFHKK

Progesterone receptor [3] = target: T2, Progesterone receptor; test: Binding affinity against human progesterone receptor (hPR) in a competitive binding assay
Androgen receptor = target: T3, Androgen receptor (Homo sapiens, UniProt P10275); test: Cross-reactivity as binding to human androgen receptor (hAR); type: functional
T3 sequence (P10275 whole entry): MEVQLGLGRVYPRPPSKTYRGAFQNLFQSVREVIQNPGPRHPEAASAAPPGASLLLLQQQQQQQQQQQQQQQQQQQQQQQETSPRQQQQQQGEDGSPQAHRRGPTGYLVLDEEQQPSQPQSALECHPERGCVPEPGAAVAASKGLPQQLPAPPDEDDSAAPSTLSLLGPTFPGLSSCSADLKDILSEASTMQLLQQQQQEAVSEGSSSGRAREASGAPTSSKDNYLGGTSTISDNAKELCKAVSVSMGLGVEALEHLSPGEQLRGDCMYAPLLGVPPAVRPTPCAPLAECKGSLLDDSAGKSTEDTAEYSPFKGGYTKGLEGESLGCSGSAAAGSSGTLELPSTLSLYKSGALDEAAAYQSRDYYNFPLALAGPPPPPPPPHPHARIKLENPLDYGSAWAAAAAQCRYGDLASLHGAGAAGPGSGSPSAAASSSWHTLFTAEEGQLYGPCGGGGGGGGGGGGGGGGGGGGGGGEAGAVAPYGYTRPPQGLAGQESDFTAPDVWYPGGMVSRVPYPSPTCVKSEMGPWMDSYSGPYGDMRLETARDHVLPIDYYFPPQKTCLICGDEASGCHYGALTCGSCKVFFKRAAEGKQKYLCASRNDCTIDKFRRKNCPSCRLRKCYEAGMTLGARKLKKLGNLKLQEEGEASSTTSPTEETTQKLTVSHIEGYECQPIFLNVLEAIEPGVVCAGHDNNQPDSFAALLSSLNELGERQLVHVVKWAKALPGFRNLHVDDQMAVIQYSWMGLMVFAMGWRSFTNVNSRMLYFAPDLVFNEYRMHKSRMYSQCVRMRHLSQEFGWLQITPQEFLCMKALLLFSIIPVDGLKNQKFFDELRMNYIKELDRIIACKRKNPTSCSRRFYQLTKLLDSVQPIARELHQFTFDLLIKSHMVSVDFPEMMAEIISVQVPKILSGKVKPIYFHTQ

Glucocorticoid receptor = target: T4, Glucocorticoid receptor (Homo sapiens, UniProt P04150); test: Cross-reactivity as binding to human glucocorticoid receptor (hGR); type: functional
T4 sequence (P04150 whole entry): T1 sequence (whole entry)

[4] = target: T5, Mineralocorticoid receptor (Homo sapiens) (UniProt P08235); test: Percent inhibition of mineralocorticoid receptor transcriptional activity at aldosterone EC50; type: functional
T5 sequence (whole entry): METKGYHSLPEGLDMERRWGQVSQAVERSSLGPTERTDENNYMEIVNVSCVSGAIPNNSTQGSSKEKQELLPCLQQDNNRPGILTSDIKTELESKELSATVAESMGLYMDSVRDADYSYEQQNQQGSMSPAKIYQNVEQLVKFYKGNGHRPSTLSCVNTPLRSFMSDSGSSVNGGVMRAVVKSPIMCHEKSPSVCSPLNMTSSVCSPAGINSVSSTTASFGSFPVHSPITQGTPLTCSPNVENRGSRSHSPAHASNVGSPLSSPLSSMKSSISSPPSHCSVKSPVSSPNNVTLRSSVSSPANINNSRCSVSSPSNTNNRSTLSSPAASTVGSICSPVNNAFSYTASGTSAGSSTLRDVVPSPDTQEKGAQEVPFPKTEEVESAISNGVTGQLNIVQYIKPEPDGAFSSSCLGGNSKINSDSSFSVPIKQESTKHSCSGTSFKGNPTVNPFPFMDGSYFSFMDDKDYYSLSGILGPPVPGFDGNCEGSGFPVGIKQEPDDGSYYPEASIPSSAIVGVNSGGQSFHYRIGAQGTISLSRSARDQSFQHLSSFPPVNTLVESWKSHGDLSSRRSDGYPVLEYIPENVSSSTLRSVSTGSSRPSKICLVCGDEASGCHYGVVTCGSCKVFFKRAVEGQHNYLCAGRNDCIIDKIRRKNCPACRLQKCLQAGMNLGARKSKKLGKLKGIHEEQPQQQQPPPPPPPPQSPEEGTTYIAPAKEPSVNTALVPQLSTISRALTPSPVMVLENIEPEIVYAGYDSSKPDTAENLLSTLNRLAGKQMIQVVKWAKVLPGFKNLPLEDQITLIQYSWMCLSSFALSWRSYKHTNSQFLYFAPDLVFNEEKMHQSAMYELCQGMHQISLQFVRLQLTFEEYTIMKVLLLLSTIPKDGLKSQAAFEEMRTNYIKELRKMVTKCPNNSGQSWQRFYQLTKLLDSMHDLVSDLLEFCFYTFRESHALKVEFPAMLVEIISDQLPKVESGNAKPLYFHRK

Progesterone receptor [5] = target: T2, Progesterone receptor; test: Antagonist activity against human progesterone receptor (hPR) in T47D human breast cancer cell line; type: functional, cell-based
[6] = target: T6, Mineralocorticoid receptor (Homo sapiens, UniProt P08235); test: Cross-reactivity as binding to human mineralocorticoid receptor (hMR); type: functional
T6 sequence (P08235 whole entry): T5 sequence (whole entry)

Progesterone receptor [7] = target: T2, Progesterone receptor; test: Human progesterone receptor (hPR) agonist activity in T47D human breast cancer cell line; type: functional, cell-based

## CC1=CC(C)(C)Nc2ccc(-c3csc(C#N)c3)cc21
[1]
  Efficacy: 83%
Progesterone receptor [2]
  EC50: 1.8 µM
Progesterone receptor [3]
  Ki: 0.0035 µM
Androgen receptor
  IC50: 0.494 µM
Glucocorticoid receptor
  IC50: 2.6 µM
[4]
  Efficacy: 88%
Progesterone receptor [5]
  IC50: 0.106 µM
[6]
  IC50: 2.05 µM
Progesterone receptor [7]
  EC50: 0.245 µM
